Residues, ends and D or L forms follow the SMILES beside them.
Legend:
[1] = target: T1, recombinant human Tie-2/Fc chimera (Homo sapiens, UniProt Q02763); experiment: BIACORE (SPR) direct binding of peptides to immobilized Tie2; conditions: 10-50 μM peptide
T1 construct: purchased R&D Systems 313-TI
Excerpt: The capability of CGEN-G6 [SEQ ID NO: 6], CGEN-F9 [SEQ ID NO: 7], CGEN-C6 [SEQ ID NO: 9], CGEN-A11 [SEQ ID NO: 10], and CGEN-G2 [SEQ ID NO: 11] to specifically bind to recombinant Tie2 and interfere with the binding of Ang1, Ang2, or Ang4 to Tie2 was investigated using the BIACORE technology, measuring protein-protein interaction and binding affinity (Wendler et al 2005, Anal Bioanal Chem, 381: 1056-1064). The technology is based on surface plasmon resonance (SPR), an optical phenomenon that enables detection of unlabeled interactants in real time. […]
Peptide-protein interaction was analyzed using surface plasmon resonance. […] Solutions containing 10-50 μM of CGEN-G6 [SEQ ID NO: 6], CGEN-F9 [SEQ ID NO: 7], CGEN-C6 [SEQ ID NO: 9], CGEN-A11 [SEQ ID NO: 10], and CGEN-G2 [SEQ ID NO: 11] were injected into the sample chamber of the BIACORE device at a rate of 20 μl/min and the interaction was monitored using surface plasmon resonance. In addition, solutions containing 100-500 nM of Ang1, Ang2, and Ang4 proteins were injected alone or in combination with 10-50 μM of CGEN-G6 [SEQ ID NO: 6], CGEN-F9 [SEQ ID NO: 7], CGEN-C6 [SEQ ID NO: 9], CGEN-A11 [SEQ ID NO: 10], and CGEN-G2 [SEQ ID NO: 11] peptides at a constant ratio of 1:100 (Ang ligand to peptide) into the sample chamber of the BIACORE device at a rate of 20 μl/min and the interaction was monitored using surface plasmon resonance. […]

[2] = test system: oxygen-induced retinopathy (OIR); experiment: Rodent model of oxygen-induced retinopathy (OIR); assay type: in vivo, Sprague Dawley rats; conditions: for inhibition of pre-retinal neovascular growth (pathological angiogenesis): relative to PBS-injected eyes, P20
Excerpt: In order to assess the in viva efficacy of CGEN-A 11 [SEQ ID NO: 10] in a disease model of angiogenesis, a rodent model of oxygen-induced retinopathy (OIR) was used. Sprague Dawley rats were raised from birth through day PI4 in a variable oxygen atmosphere consisting of 24-hour alternating cycles of 50% and 10% oxygen. Rats were predisposed to pathological retinal angiogenesis as a result of oxygen treatment. Upon removal from the oxygen exposure chamber on day P14, rats received intravitreal injections of CGEN-A11 [SEQ ID NO: 10] in one of two doses: 15 μg/ml (low) or 75 μg/ml (high), 100 μg/ml recombinant rat Tie-2/Fc (R&D Systems, 3874-T2) or 100 μg/ml anti-VEGFR2 (Sigma, V1014) as positive controls, a combination of CGEN-A11 [SEQ ID NO: 10] at 30 μg/ml and anti-VEGFR2 (100 μg/ml), or vehicle (PBS) at a volume of 5 μl. An additional similar intravitreal administration took place 3 days later, on day P17. All pups were sacrificed on day P20. Both normal, intra-retinal vascular growth and abnormal, pre-retinal neovascular growth were assessed at six days post-exposure (P20) in ADPase-stained retinal flat-mounts, using widely published methods (e.g. Penn J S et al., 1991, Invest Ophthalmol Vis Sci. 32(4):1147; MicLeod D S et al., 1987, Microvasc Res. 33:257-269). All assessments were performed by a single, highly trained observer, who was blinded to treatment group. Areas of normal and abnormal vascular growth were measured via computer-assisted image analysis using high-resolution digital images of the stained retinal flat-mounts. The data were subjected to analysis of variance to determine statistical significance and a Dunnett's post hoc test to identify how the various treatment groups compared.
Data are depicted using percent total retinal area vascularized. Sample sizes (10, 11 or 12) are indicated on each bar. […] These differences yielded statistical significance, both at p<0.0001. Statistical significance was calculated using area (mm^2) measurements.
Data are depicted as area vascularized (mm^2). Sample sizes (10, 11 or 12) are indicated on each bar.

T1 sequence (Q02763 with tags, fused parts or gaps limits assumed): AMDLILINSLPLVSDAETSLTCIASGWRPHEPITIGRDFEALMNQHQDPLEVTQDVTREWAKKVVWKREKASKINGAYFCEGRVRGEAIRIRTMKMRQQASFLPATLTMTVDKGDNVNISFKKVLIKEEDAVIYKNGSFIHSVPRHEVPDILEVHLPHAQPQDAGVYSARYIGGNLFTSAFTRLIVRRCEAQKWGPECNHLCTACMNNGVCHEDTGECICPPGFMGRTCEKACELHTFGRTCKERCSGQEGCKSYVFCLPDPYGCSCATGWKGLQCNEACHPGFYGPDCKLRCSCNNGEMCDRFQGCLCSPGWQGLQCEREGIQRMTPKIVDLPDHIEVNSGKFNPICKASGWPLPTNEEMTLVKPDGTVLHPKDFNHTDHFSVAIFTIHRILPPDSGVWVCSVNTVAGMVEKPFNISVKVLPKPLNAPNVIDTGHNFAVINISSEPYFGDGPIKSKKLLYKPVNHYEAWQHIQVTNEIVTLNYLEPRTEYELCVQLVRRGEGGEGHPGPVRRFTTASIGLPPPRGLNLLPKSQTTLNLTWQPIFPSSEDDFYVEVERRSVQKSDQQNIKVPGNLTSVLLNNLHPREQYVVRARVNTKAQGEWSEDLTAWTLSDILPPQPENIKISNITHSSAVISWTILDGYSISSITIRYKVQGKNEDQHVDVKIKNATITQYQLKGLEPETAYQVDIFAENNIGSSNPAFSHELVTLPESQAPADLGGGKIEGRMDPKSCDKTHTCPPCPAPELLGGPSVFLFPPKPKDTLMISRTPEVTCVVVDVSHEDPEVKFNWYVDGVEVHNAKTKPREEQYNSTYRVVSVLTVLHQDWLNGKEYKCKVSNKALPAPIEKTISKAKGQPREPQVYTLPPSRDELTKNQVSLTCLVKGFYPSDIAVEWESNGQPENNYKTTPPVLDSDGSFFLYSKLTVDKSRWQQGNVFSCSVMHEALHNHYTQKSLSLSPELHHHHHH

binding of peptide alone to immobilized Tie2 [1]	Structure (SMILES)	inhibition of pre-retinal neovascular growth (pathological angiogenesis) ([2]; intravitreal 15 μg/ml) [%]	intra-retinal normal vascular growth compared to PBS control ([2]; intravitreal 75 μg/ml, 5 μl, P14 and P17, assessed P20, p<0.0001)	inhibition of pre-retinal neovascular growth (pathological angiogenesis) ([2]; intravitreal 75 μg/ml, p=0.0126) [%]
some non specific binding	CC[C@H](C)[C@H](NC(=O)[C@H](C)NC(=O)[C@H](CCCNC(=N)N)NC(=O)[C@H](CCC(=O)O)NC(=O)[C@H](CC(C)C)NC(=O)[C@H](CCCCN)NC(=O)[C@H](CCCCN)NC(=O)[C@H](CC(C)C)NC(=O)[C@H](Cc1c[nH]c2ccccc12)NC(=O)[C@H](CCC(N)=O)NC(=O)[C@@H](NC(=O)[C@H](CC(N)=O)NC(=O)[C@H](CC(N)=O)NC(=O)[C@H](CCC(N)=O)NC(=O)[C@H](CC(C)C)NC(=O)[C@H](C)NC(=O)[C@H](CCC(N)=O)NC(=O)[C@H](CCC(=O)O)NC(=O)[C@H](CC(C)C)NC(=O)[C@H](CCC(N)=O)NC(=O)[C@H](CCCCN)NC(=O)[C@@H](NC(=O)[C@H](CCC(N)=O)NC(=O)[C@H](CCC(N)=O)NC(=O)[C@@H](NC(C)=O)[C@@H](C)O)C(C)C)[C@@H](C)O)C(=O)N[C@@H](CCCCN)C(=O)N[C@H](C(=O)N[C@H](C(=O)N[C@@H](CC(C)C)C(N)=O)[C@@H](C)CC)[C@@H](C)O [CGEN-G2] (Ac-TQQVKQLEQALQNNTQWLKKLERAIKTIL-NH2)	–	–	–
–	CC(=O)N[C@@H](CCC(=O)O)C(=O)N[C@H](C(=O)N[C@@H](Cc1ccccc1)C(=O)N[C@@H](CC(C)C)C(=O)N[C@@H](CO)C(=O)N[C@H](C(=O)N[C@@H](CC(N)=O)C(=O)N[C@@H](CCCCN)C(=O)N[C@@H](CC(C)C)C(=O)N[C@@H](CCC(=O)O)C(=O)N[C@@H](CC(N)=O)C(=O)N[C@@H](CCC(N)=O)C(N)=O)[C@@H](C)O)[C@@H](C)O [CGEN-A11, ETFLSTNKLENQ] (Ac-ETFLSTNKLENQ-NH2)	38.9	statistically significant increase	76.4

— patent US9255132B2, “Angiopoietin derived peptides” (Compugen Ltd., priority 2008, dated 2016)
